Measurements from patent publication US4433147A, “Process for preparing 10-deazaminopterins” (priority 1982, dated 1984).
“And” between values parts separate entries of the source, which are not always exact repeats. Identical values can stand only once. Like-named read-outs stand apart in the source and are kept apart here.

What was measured:
[1] = test system: P815 ascites
Text: (§1) ^1 One dose (s.c.) every 2 days for a total of 5 doses.
(§2) MST = Median survival time ± standard deviation.
ILS = Increased life span.
Each dosage tested twice.

[2] = in vivo; details: read-out: acute LD50
[3] = test system: S180-J ascites
Text: as §1
(§3) ^2 Toxic animals weigh 13-15 g at death (original weight 20 g).
as §2
ILS = Increased life span.
Each dose tested 2 to 3 times.

[4] = test system: L1210 leukemia; assay: L1210 leukemia in BD (2) F1 female mice, i.p., increase in median life span (Example 8, Table I); details: for Increased life span / Median life span / Weight change: three times per week
[5] = test system: carrier in tumor; assay: membrane transport by carrier in tumor; format: cell-based
[6] = test system: L1210 ascites
Text: ^1 One dose every 2 days for a total of 5 doses.
^2 Animals weigh 13-15 g at death (original weight 20 g).
as §2
ILS = increased life span.
Each dose tested 2 to 4 times.

[7] = Plasma and tissue (tumor, small intestine and marrow) pharmacokinetics; format: in vivo; details: for Plasma and tissue pharmacokinetics: small intestine and marrow, dAM versus MTX
[8] = test system: Ehrlich ascites
Text: as §1, §3, §2
ILS = Increased life span.

[9] = test system: ascites tumor systems; assay: Ascites tumor systems, summary of Examples 10 to 13; format: in vivo, mice; details: all of the ascites tumor systems examined
[10] = test system: Streptococcus faecium; details: DeGraw et al., J. Heterocyclic Chem. 8 105 (1971); cited from earlier work
[11] = test system: L1210 leukemia; assay: L1210 leukemia in BD (2) F1 female mice, i.p., 10-alkyl derivatives (Example 9, Table II); details: for AST / ILS: every two days times five; for antileukemic activity compared with methotrexate: on a similar dosage level
[12] = test system: dihydrofolic reductase; details: cited from earlier work
[13] = 6.0 mg/kg oral every 2 days × 5

## Nc1nc(N)c2nc(CCc3ccc(C(=O)N[C@@H](CCC(=O)O)C(=O)O)cc3)cnc2n1 [10-deazaminopterin, 10-Deazaminopterin]
[1]; 6 mg/kg s.c. every 2 days × 5
  ILS (increased life span): 107.6%
  MST (median survival time): 18.2 ± 1.3 days
[1]; 9 mg/kg s.c. every 2 days × 5
  ILS (increased life span): 116.3%
  MST (median survival time): 19.0 ± 0.9 days
[1]; 12 mg/kg s.c. every 2 days × 5
  ILS (increased life span): 118.4%
  MST (median survival time): 19.2 ± 1.2 days
[1]; against P815, s.c., q2d×5
  Maximum ILS: +117%
[1]; mouse, in vivo
  Toxic Deaths: 0/10
[2]
  LD50: 65 mg/kg
[3]; 3 mg/kg s.c. every 2 days × 5
  ILS (increased life span): 8.7%
  MST (median survival time): 13.0 ± 1.1 days
[3]; 6 mg/kg s.c. every 2 days × 5
  ILS (increased life span): 74.8%
  MST (median survival time): 21.2 ± 1.7 days
[3]; 9 mg/kg s.c. every 2 days × 5
  ILS (increased life span): 117.3%
  MST (median survival time): 26.3 ± 0.7 days
[3]; 12 mg/kg s.c. every 2 days × 5
  60 day survivors: Two
  ILS (increased life span): > 159.6%
  MST (median survival time): > 31.4 ± 2.5 days
[3]; 18 mg/kg s.c. every 2 days × 5
  ILS (increased life span): 54.0%
  MST (median survival time): 18.6 ± 2.4 days
[3]; against S180, s.c.
  long-term survivors: long-term survivors
[3]; against S180, s.c., q2d×5
  Maximum ILS: > +160%
[3]; mouse, in vivo
  Toxic Deaths: 0/10 and 0/15 and 7/10
[4]; 0.1875 mg/kg i.p.
  Increased life span: 3.0%
  Median life span: 7.2 ± 0.6 days
  Weight change: +10%
[4]; 0.375 mg/kg i.p.
  Increased life span: 29.7%
  Median life span: 8.9 ± 1.0 days
  Weight change: +7%
[4]; 3.0 mg/kg i.p.
  Increased life span: 164.8%
  Median life span: 13.0 ± 1.9 days
  Weight change: +5%
[4]; 6.0 mg/kg i.p.
  Toxicity: slight toxicity
  Increased life span: 210.0%
  Median life span: 21.8 ± 1.5 days
  Weight change: -3%
[4]; i.p.
  life span of the test mice: very considerably increased
[4]; on a similar dosage level, i.p.
  antileukemic activity compared with methotrexate: superior to methotrexate
[5]; dAM and MTX
  competition for carrier mechanism: compete for the same carrier mechanism
[5]; dAM versus MTX
  affinity of carrier in tumor: greater affinity
[5]; membrane transport in tumor, dAM versus MTX
  saturability (Km) for influx: favoring greater accumulation of dAM
[6]; 3 mg/kg oral every 2 days × 5
  ILS (increased life span): 77%
  MST (median survival time): 11.7 ± 1.0 days
[6]; 3 mg/kg s.c. every 2 days × 5
  ILS (increased life span): 108%
  MST (median survival time): 13.8 ± 0.7 days
[6]; [13]
  ILS (increased life span): 122%
  MST (median survival time): 14.7 ± 1.3 days
[6]; 6 mg/kg s.c. every 2 days × 5
  ILS (increased life span): 131%
  MST (median survival time): 15.2 ± 1.5 days
[6]; 9 mg/kg s.c. every 2 days × 5
  ILS (increased life span): 168%
  MST (median survival time): 17.8 ± 0.8 days
[6]; 12 mg/kg s.c. every 2 days × 5
  ILS (increased life span): 176%
  MST (median survival time): 18.2 ± 1.3 days
[6]; against L1210, orally, same dosage and schedule
  Maximum ILS: +122%
[6]; against L1210, s.c., q2d×5
  Maximum ILS: +172%
[6]; ip
  Maximum ILS: +203%
[6]; mouse, in vivo
  Toxic Deaths: 0/10 and 0/15 and 1/15 and 0/20
[7]; optimum dosages, dAM over MTX
  persistence of exchangeable drug in tumor: greater persistence
[7]
  Plasma and tissue pharmacokinetics: similar
[8]; 6 mg/kg s.c. every 2 days × 5
  ILS (increased life span): 34.8%
  MST (median survival time): 23.2 ± 1.8 days
[8]; 9 mg/kg s.c. every 2 days × 5
  ILS (increased life span): 58.1%
  MST (median survival time): 27.2 ± 2.2 days
[8]; 12 mg/kg s.c. every 2 days × 5
  ILS (increased life span): 64.0%
  MST (median survival time): 28.2 ± 2.9 days
[8]; against Ehrlich, s.c., q2d×5
  Maximum ILS: +61%
[8]; mouse, in vivo
  Toxic Deaths: 0/10
[9]
  activity compared with methotrexate: more active than methotrexate

## Nc1nc2ncc(CCc3ccc(C(=O)O)cc3)nc2c(=O)[nH]1 [10-deazapteroic acid]
[10]
  growth-inhibitory activity: potent growth-inhibitory activity

## CCC(Cc1cnc2nc(N)nc(N)c2n1)c1ccc(C(=O)N[C@@H](CCC(=O)O)C(=O)O)cc1 (stereo partly shown) [10-ethyl-10-deazaminopterin]
[11]; 12 mg/kg i.p.
  AST: 18.3 ± 1.7 days
  ILS: +172%
[11]; 18 mg/kg i.p.
  AST: 21.8 ± 1.4 days
  ILS: +220%
[11]; i.p.
  life span of the test mice: very considerably increased
  antileukemic activity compared with methotrexate: superior to methotrexate

## CC(Cc1cnc2nc(N)nc(N)c2n1)c1ccc(C(=O)N[C@@H](CCC(=O)O)C(=O)O)cc1 (stereo partly shown) [10-methyl-10-deazaminopterin, 10-Methyl-10-deazaminopterin]
[11]; 12 mg/kg i.p.
  AST: 18.1 ± 1.9 days
  ILS: +170%
[11]; 18 mg/kg i.p.
  AST: 22.2 ± 1.6 days
  ILS: +230%
[11]; i.p.
  life span of the test mice: very considerably increased
  antileukemic activity compared with methotrexate: superior to methotrexate
[11]; maximum dose, about 22 mg/kg, i.p.
  Toxicity: slight toxicity

## CN(Cc1cnc2nc(N)nc(N)c2n1)c1ccc(C(=O)N[C@@H](CCC(=O)O)C(=O)O)cc1 [Methotrexate, reference compound]
[1]; 6 mg/kg s.c. every 2 days × 5
  MST (median survival time): 15.4 ± 1.1 days
  Toxic Deaths: 0/10
[1]; 9 mg/kg s.c. every 2 days × 5
  MST (median survival time): 17.6 ± 1.6 days
  Toxic Deaths: 0/10
[1]; 12 mg/kg s.c. every 2 days × 5
  MST (median survival time): 18.4 ± 1.3 days
  Toxic Deaths: 0/10
[2]; ip or sc
  LD50: 96 mg/kg
[4]; 3.0 mg/kg i.p.
  Weight change: +8%
[4]; 6.0 mg/kg i.p.
  Toxicity: Slight toxicity
  Weight change: +3%
[12]
  dihydrofolic reductase inhibition: powerful dihydrofolic reductase inhibitors
[7]
  Plasma and tissue pharmacokinetics: similar
[8]; 6 mg/kg s.c. every 2 days × 5
  MST (median survival time): 19.8 ± 2.3 days
  Toxic Deaths: 0/10
[8]; 9 mg/kg s.c. every 2 days × 5
  MST (median survival time): 20.8 ± 3.0 days
  Toxic Deaths: 0/10
[8]; 12 mg/kg s.c. every 2 days × 5
  MST (median survival time): 20.2 ± 1.9 days
  Toxic Deaths: 0/10
